{
  "source": "patent US8822549B2",
  "about": "“Buffered oxygen therapeutic” (priority 2011, dated 2014)",
  "key": {"[1]": {"test_system": "hypoxic tumors", "experiment": "Published studies: fluorocarbons as O2 delivery agents to sensitize hypoxic tumors to radiation therapy", "format": "in vivo", "conditions": "versus the liquid fluorocarbons fluosol and perfluoroctylbromide", "method": "In these studies, fluorocarbons were administered systemically and oxygen was administered via inhalation to sensitize hypoxic tumors to radiation therapy. PFOB was effective at less than 1/100th the dose of the liquid fluorocarbons fluosol and […]."}, "[2]": {"test_system": "hypoxic tumors", "conditions": "administered systemically, oxygen via inhalation; published studies; cited from earlier work"}},
  "data": [
    {"smiles": "FC(F)(F)C(F)(F)C(F)(F)C(F)(F)C(F)(F)C(F)(F)C(F)(F)C(F)(F)Br", "note": "[PFOB, perfluoroctylbromide]", "values": [
      {"measurement": "effective dose as a fraction of the dose of liquid fluorocarbons", "setting": "[1]", "result": "less than 1/100"},
      {"measurement": "Volume (dose as O2 delivery agent)", "setting": "[2]", "result": "0.002 to 0.015", "unit": "L/kg"},
      {"measurement": "g/kg (fluorocarbon dose as O2 delivery agent)", "setting": "[2]", "result": "2 to 15", "unit": "g/kg"}
    ]}
  ]
}
